Measured values published in PubChem BioAssay AID467 (The Scripps Research Institute Molecular Screening Center, 2006).
Activity calls are given as the source filed them. How the calls were made is not given here.

Tested on: parental cell line counter screen, S1P1 agonist assay readout
Assay: signal in parental cells, counter-screen for S1P1 agonist project (AID 467);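 further: agonist potency measured against forskolin stimulation plus an EC20 level of SEW2871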

| SMILES | EC50 |
| --- | --- |
| Cc1ccc(-c2nc(CSCC(=O)N3CCN(c4ccccn4)CC3)c(C)o2)cc1 | > 30 µM (inactive) |
| Cc1cccc(N2CCN(C(=O)CSCc3c(C)noc3C)CC2)c1C | > 30 µM (inactive) |
| COc1ccc(-c2nc(-c3cccc(C(F)(F)F)c3)no2)cc1OC | > 95.1 µM (inactive) |
| CCOc1nc(C)ccc1-c1noc(-c2ccncc2)n1 | > 95.1 µM (inactive) |
| CCOc1ccc(S(=O)(=O)n2cnc3cc(C)c(C)cc32)cc1 | > 30 µM (inactive) |
| Oc1ccc(C2NCc3ccccc3-n3cccc32)cc1Cl (stereo not given) | > 30 µM (inactive) |
| CCc1ccc(N(CC)c2ncnc3nc[nH]c23)cc1 | > 95.1 µM (inactive) |
| Nc1nnnn1/N=C/C(Br)=C/c1ccccc1 | 4.08 µM |
| Cc1sc2ncnc(Sc3nnnn3-c3ccccc3)c2c1C | > 30 µM (inactive) |
| COc1ccc(S(=O)(=O)Cc2ccc(C(=O)N3CCN(c4ccc(Cl)cc4)CC3)o2)cc1 | > 30 µM (inactive) |
| Cn1c(=O)oc2cc(S(=O)(=O)N3CCCC(C(=O)N4CC=C(c5ccccc5)CC4)C3)ccc21 (stereo not given) | 44.5 µM (inactive) |
| Cc1ccc2c(c1)[nH]c1c(N3CCN(Cc4ccccc4)CC3)ncnc12 | 7.72 µM |
| CCc1ccc2oc(-c3cc(N)cc(C)c3O)nc2c1 | > 95.1 µM (inactive) |
| CC(C)C(c1nnnn1Cc1ccccc1)N(Cc1ccco1)Cc1cccs1 (stereo not given) | > 95.1 µM (inactive) |
| Cc1cccc(OCCCCc2c(C)n[nH]c2C)c1C | 29.3 µM (inactive) |
| O=C(CCC(=O)N(Cc1ccco1)C(C(=O)NC1CCCC1)c1ccncc1)Nc1cccnc1 (stereo not given) | > 95.1 µM (inactive) |
| CCN(C(=O)c1ccc(C(C)(C)C)cc1)c1nnc(Cn2nnc3ccccc32)s1 | 8.78 µM |
| Cc1nc(NC(C)c2ccccc2)c2oc3ccccc3c2n1 (stereo not given) | 52.9 µM (inactive) |
| Cc1cc2nc(-c3ccc(NC(=O)C(C)C)cc3)oc2cc1C | > 95.1 µM (inactive) |
| CCn1nc(-c2cccs2)nc2c(=O)n(C)c(=O)nc1-2 | 12.3 µM (inactive) |
| Cn1c(-c2c(N)n(C3CCCC3)c3nc4ccccc4nc23)nc2ccccc21 | 1.96 µM |
| O=C(CSC1=NCCS1)Nc1ccnc2ccccc12 | 11.1 µM (inactive) |

| SMILES | EC50 |
| --- | --- |
| Cc1cc(C(=O)Nc2sc(C)c(-c3ccc(F)cc3)c2C(N)=O)no1 | > 95.1 µM (inactive) |
| Cc1ccc(S(=O)(=O)Nc2ccc3ncccc3c2)cc1 | > 30 µM (inactive) |
| CCn1c(-c2cccc(Cl)c2)n[nH]c1=S | > 95.1 µM (inactive) |
| O=C(CSc1nnc(-c2c[nH]c3ccccc23)o1)N(Cc1ccccc1)c1ccc(F)cc1 | 16 µM (inactive) |
| CCN=c1scc(-c2ccc3c(c2)NC(=O)CO3)n1N=C1CCCC1 | > 30 µM (inactive) |
| CC(C)OCCCNc1ncnc2c1[nH]c1ccccc12 | 43 µM (inactive) |
| O=C(Nc1ccc(N2CCCCC2)c(Cl)c1)c1ncn[nH]1 | > 95.1 µM (inactive) |
| COc1ccc(NC(=O)c2cc(-c3cccs3)on2)cc1OC | > 95.1 µM (inactive) |
| CCOC(=O)CN1C(=O)C(C)(C)Oc2ccc(C(=O)Nc3ccccc3OC)cc21 | > 95.1 µM (inactive) |
| O=C(Nc1cccc(C(F)(F)F)c1)C1CCCN1S(=O)(=O)c1cccc2cccnc12 (stereo not given) | > 30 µM (inactive) |
| Cc1ccc2nc(C(F)(F)F)c(C#N)c(N)c2c1 | 6.47 µM |
| Cc1ccc(S(=O)(=O)Nc2cccc3ncccc23)s1 | > 95.1 µM (inactive) |
| O=C(CSc1nnc(-c2c[nH]c3ccccc23)o1)N1c2ccccc2CCc2ccccc21 | > 95.1 µM (inactive) |
| O=c1[nH]nc(Sc2ncnc3sccc23)n1CCc1ccccc1 | 21.1 µM (inactive) |
| CCN(CC)c1ccc2cc(NC(=O)CCC(=O)O)c(=O)oc2c1 | 6.1 µM |
| CCOc1ccc(-c2noc(-c3cccnc3)n2)cc1OC | > 95.1 µM (inactive) |
| Nc1ccc(N2CCCCCC2)cc1 | 9.89 µM |
| Cc1ccc(-c2csc3ncnc(Sc4nnc(CN5CCCCCC5=O)o4)c23)cc1 | 2.73 µM |
| CN1CCN(C(=O)CSc2nc(-c3cccs3)cc(-c3cccs3)c2C#N)CC1 | 19.7 µM (inactive) |
| Cc1ccc(-c2csc(N3CCC(NS(=O)(=O)c4ccc5c(c4)OCCO5)CC3)n2)cc1 | 5.75 µM |
| CCc1c(C)nc2ncnn2c1NCCc1ccc(OC)cc1 | 40.9 µM (inactive) |
| CCOc1ccccc1COC(=O)c1cccc(-n2cnnn2)c1 | > 95.1 µM (inactive) |

| SMILES | EC50 |
| --- | --- |
| CCCOc1ccc(-c2nnc(-c3ccncc3)o2)cc1 | > 95.1 µM (inactive) |
| Fc1ccc2[nH]c3c(N4CCN(c5ccccc5)CC4)ncnc3c2c1 | 18.5 µM (inactive) |
| CCCCCn1c(=O)c(C(=O)NCc2ccncc2)c(O)c2ccccc21 | 30.8 µM (inactive) |
| Cc1ccc(-c2n[nH]c(=S)n2C)cc1 | > 95.1 µM (inactive) |
| CCc1c(C)sc(NC(=O)c2cc(-c3ccco3)on2)c1C#N | > 95.1 µM (inactive) |
| c1ccc(C(Cc2nc(-c3cccnc3)no2)c2ccccc2)cc1 | > 95.1 µM (inactive) |
| CCC(C)c1ccc2oc(-c3ccc(NC(=O)Cn4cnc5c(=O)n(C)c(=O)n(C)c54)cc3)nc2c1 (stereo not given) | > 95.1 µM (inactive) |
| Cc1nc(C)c(C(=O)Nc2ccc(Oc3ccccc3)cc2)o1 | > 30 µM (inactive) |
| CCCCn1ccnc1C(=O)c1cccc(S(=O)(=O)N2c3ccccc3CC2C)c1 (stereo not given) | > 95.1 µM (inactive) |
| Cc1ccccc1OCC(=O)Nc1ccc(N2CCN(C(=O)C(C)C)CC2)c(Cl)c1 | 26 µM (inactive) |
| C=CCn1c(SCC(=O)c2cccs2)nc2sc(CC)cc2c1=O | 58.6 µM (inactive) |
| NC(=O)c1ccc(OCC(F)(F)C(F)(F)C(F)(F)C(F)(F)C(F)(F)C(F)F)cc1 | > 95.1 µM (inactive) |
| O=C(Nc1ccc(O)cc1)c1cc2n(n1)C(C(F)(F)F)CC(c1ccco1)N2 (stereo not given) | > 95.1 µM (inactive) |
| O=C(Nc1ccc(-c2noc(CCc3ccccc3)n2)cc1)c1cccnc1 | > 30 µM (inactive) |
| CC(C)(C)NC(=O)CSc1ncnc2c1nnn2Cc1ccccc1Cl | 7.01 µM |
| CCC1CCCCN1C(=O)CSc1nnc(-c2c[nH]c3ccccc23)o1 (stereo not given) | > 30 µM (inactive) |
| Cc1cc(C(=O)CSc2nnc(-c3ccccc3)n2-c2ccccc2)c(C)n1-c1ncn[nH]1 | > 95.1 µM (inactive) |
| CC1=C(C(=O)OCc2ccc3c(c2)OCO3)C(c2ccc(F)cc2)NC(=O)N1 (stereo not given) | 2.3 µM |
| C/C(N)=C(/C#N)C(=O)CSc1nnc(SCc2ccc(Cl)cc2)s1 | > 95.1 µM (inactive) |
| Cc1nnc(SCC(=O)N2CCC(c3noc4ccc(F)cc34)CC2)s1 | > 95.1 µM (inactive) |
| COc1ccccc1-n1nnnc1SCc1cc2c(cc1Br)OCO2 | > 95.1 µM (inactive) |
| O=C(CSc1nnc(Cn2nnc3ccccc32)o1)N(Cc1ccc(F)cc1)c1ccccc1 | 30.6 µM (inactive) |

| SMILES | EC50 |
| --- | --- |
| CCOC(=O)c1ccc(NC(=O)CCc2nc(-c3ccc(Cl)cc3)no2)cc1 | > 95.1 µM (inactive) |
| COC(=O)c1cc(CSc2nnc(-c3ccccc3)c(-c3ccccc3)n2)oc1C | > 95.1 µM (inactive) |
| CCn1c(NC(=O)c2cccc(Cn3cc(Cl)cn3)c2)nc2ccccc21 | > 95.1 µM (inactive) |
| CC(C)c1ccc2oc(-c3cc(N)ccc3O)nc2c1 | > 30 µM (inactive) |
| Cc1cc(C(=O)CSc2nnnn2-c2ccc(O)cc2)c(C)n1Cc1ccc2c(c1)OCO2 | 11.9 µM (inactive) |
| CC(C)Oc1cc(O)c2c(=O)c(-c3ccc(O)cc3)coc2c1 | 20.5 µM (inactive) |
| CCOc1ccc(-c2nc(CSCC(=O)N3CCN(c4cccc(OC)c4)CC3)c(C)o2)cc1 | 19.4 µM (inactive) |
| Cc1ccnc(SCC(=O)Nc2sc3c(c2C#N)CCCC3)n1 | > 30 µM (inactive) |
| CCCn1c(NC(=O)c2cccc(S(=O)(=O)N3CCCC3)c2)nc2ccccc21 | 10.4 µM (inactive) |
| Cn1ncnc2c(=O)n(C)c(=O)nc1-2 | 1.8 µM |
| Cc1ccc2[nH]c3c(N4CCCCCC4)ncnc3c2c1 | 10.9 µM (inactive) |
| Cc1ccccc1CS(=O)(=O)c1nnc([C@H](CC(C)C)NC(=O)OC(C)(C)C)o1 | 2.89 µM |
| Cc1onc(-c2ccccc2Cl)c1C(=O)Oc1cc(N)n(S(=O)(=O)c2ccc(F)cc2)n1 | 9.2 µM |
| COC(=O)c1c(C)n(-c2ccc(OC)cc2)c2ccc(O)cc12 | 20.1 µM (inactive) |
| CCc1oc2ccccc2c1C(=O)c1cc(Br)c(O)c(Br)c1 | 13.5 µM (inactive) |
| O=C(c1ccc(Cl)s1)N1CCN(c2nc3ccccc3s2)CC1 | > 95.1 µM (inactive) |
| CC(C)Cn1c(N)c(C(=O)CSc2ccc3c(c2)OCCO3)c(=O)n(C)c1=O | 88.5 µM (inactive) |
| O=C(Nc1nc(-c2ccc(Cl)s2)cs1)c1ccncc1 | > 95.1 µM (inactive) |
| Cc1ccc(-c2nc(COC(=O)c3c(C)noc3C)cs2)cc1 | > 95.1 µM (inactive) |
